From patent publication EP3293174A1, “CRYSTALLINE SALTS OF BETRIXABAN” (SANDOZ AG, priority 2016, dated 2018)
Counter-ions that a name gives are not always drawn.

Key:
Format in all cases: physicochemical
[1] = Gravimetric moisture sorption/desorption (GMSD) isotherms; conditions: for hygroscopicity according to the GMSD isotherms: 25 ± 0.1°C, 0 to 95% RH; for water: when measured at 0 to 95% RH and 25 ± 0.1°C
Procedure: Gravimetric moisture sorption/desorption
Gravimetric moisture sorption/desorption (GMSD) isotherms were recorded with an SPSx-1µ moisture sorption analyzer (ProUmid, Ulm). The measurement cycle was started at ambient relative humidity (RH) of 30%. Relative humidity was then decreased to 5% RH in 5% steps, followed by a further decrease to 3% RH and to 0% RH. For this isotherm, as black filled square with a white x inside is used in the respective figures. Afterwards RH was increased from 0% to 95% RH in a sorption cycle and decreased to 0 % in a desorption cycle in 5% steps. Finally RH was increased to 40% RH in 5% steps. As to the isotherm obtained by the last step, a black filled square with a white star inside is used as symbol in the respective figures.
The time per step was set to a minimum of 2 hours and a maximum of 6 hours. If an equilibrium condition with a constant mass of ± 0.01 % within 1 hour was reached before the maximum time for all examined samples the sequential humidity step was applied before the maximum time of 6 hours. If no equilibrium was achieved the consecutive humidity step was applied after the maximum time of 6 hours. The temperature was 25 ± 0.1°C.

[2] = Determination of the moisture stability (climate chamber, PXRD analysis)
Procedure: Powder X-ray diffraction (PXRD) was performed with a PANalytical X'Pert PRO diffractometer equipped with a theta/theta coupled goniometer in transmission geometry, Cu-Kα1,2 radiation (wavelength 0.15419 nm) with a focusing mirror and a solid state PIXcel detector. Diffractograms were recorded at a tube voltage of 45 kV and a tube current of 40 mA, applying a stepsize of 0.013° 2-Theta with 40s per step (255 channels) in the angular range of 2° to 40° 2-Theta at ambient conditions. Determination of the moisture stability Moisture stability at accelerated stability conditions was performed in a Memmert constant climate chamber HPP110.

[3] = Determination of the solubility in water (solvent addition technique); conditions: 25 °C, thermodynamic from solid, in water at 25°C, estimated by solvent addition
Procedure: About 10 mg of crystalline betrixaban salt were weighed out into a vial. Water was added to the vial in aliquots of 500 µL and 200 µL until the salt was dissolved. In between the water additions the samples was sonicated for about 5 min, followed by shaking at 25°C for about 10 to 15 min.

[4] = listed as crystalline form B of betrixaban hydrobromide, hydrobromide
[5] = 8 weeks at 40°C and a relative humidity of 75%
[6] = listed as crystalline form A of betrixaban hydrochloride, hydrochloride

Row | SMILES | hygroscopicity according to the GMSD isotherms [1, 4] | water [1, 4] [%] | PXRD pattern after storage compared with the initial pattern (moisture stability test) [2, 5] | solubility [3] [µg/mL] | hygroscopicity according to the GMSD isotherms [1, 6] | water [1, 6] [%] | PXRD pattern after storage compared with the initial pattern (moisture stability test) ([2]; 4 weeks at 40°C and a relative humidity of 75%)
1 | COc1ccc(NC(=O)c2ccc(C(=N)N(C)C)cc2)c(C(=O)Nc2ccc(Cl)cn2)c1 [Betrixaban hydrobromide, form B, betrixaban hydrobromide] | moderately hygroscopic | ≤ 1.9 | essentially identical |  |  |  | 
2 | COc1ccc(NC(=O)c2ccc(C(=N)N(C)C)cc2)c(C(=O)Nc2ccc(Cl)cn2)c1 [Betrixaban hydrochloride, form A, betrixaban hydrochloride] |  |  | essentially identical | > 5000 | non-hygroscopic | ≤ 0.2 | 
3 | COc1ccc(NC(=O)c2ccc(C(=N)N(C)C)cc2)c(C(=O)Nc2ccc(Cl)cn2)c1 [Betrixaban hydrochloride, form B, betrixaban hydrochloride] |  |  |  |  |  |  | essentially identical
